Source: patent publication US7632833B2, “Mitotic kinesin inhibitors” (Merck & Co., Inc., priority 2004, dated 2009)

These compounds were tested against T1, human poly-histidine tagged KSP motor domain (KSP(367H)) (Homo sapiens, UniProt P52732) (assay: Kinesin ATPase In Vitro Assay). Details: not given.
T1 construct: were used to amplify the motor domain and the neck linker region; made in house; host or cells: E. coli BL21 (DE3), vector pRSETa
T1 sequence (P52732 18-359 limits assumed): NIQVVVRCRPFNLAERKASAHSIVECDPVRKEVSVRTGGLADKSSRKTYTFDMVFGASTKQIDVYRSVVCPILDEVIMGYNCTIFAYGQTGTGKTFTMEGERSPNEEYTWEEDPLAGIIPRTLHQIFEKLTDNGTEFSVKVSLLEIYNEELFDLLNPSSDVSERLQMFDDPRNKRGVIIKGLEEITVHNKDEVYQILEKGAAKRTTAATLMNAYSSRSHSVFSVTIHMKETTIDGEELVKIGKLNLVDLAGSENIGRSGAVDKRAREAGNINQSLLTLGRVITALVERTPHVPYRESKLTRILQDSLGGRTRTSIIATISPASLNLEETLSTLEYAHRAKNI
Assay type: biochemical
Protocol: I. Kinesin ATPase In Vitro Assay
The N-terminal primer 5′-[…] (SEQ. ID. NO.: 1) and the C-terminal primer 5′-[…] […] (SEQ. ID. NO.: 2)
were used to amplify the motor domain and the neck linker region. The PCR products were digested with AseI and XhoI, ligated into the NdeI/XhoI digestion product of pRSETa (Invitrogen) and transformed into E. coli BL21 (DE3).
Cells were grown at 37° C. to an OD600 of 0.5. After cooling the culture to room temperature expression of KSP was induced with 100 μM IPTG and incubation was continued overnight. Cells were pelleted by centrifugation and washed once with ice-cold PBS. Pellets were flash-frozen and stored −80° C.
Protein Purification: Cell pellets were thawed on ice and resuspended in lysis buffer (50 mM K-HEPES, pH 8.0, 250 mM KCl, 0.1% Tween, 10 mM imidazole, 0.5 mM Mg-ATP, 1 mM PMSF, 2 mM benzimidine, 1× complete protease inhibitor cocktail (Roche)). Cell suspensions were incubated with 1 mg/ml lysozyme and 5 mM β-mercaptoethanol on ice for 10 minutes, followed by sonication (3×30 sec). All subsequent procedures were performed at 4° C. Lysates were centrifuged at 40,000×g for 40 minutes. Supernatants were diluted and loaded onto an SP Sepharose column (Pharmacia, 5 ml cartridge) in buffer A (50 mM K-HEPES, pH 6.8, 1 mM MgCl2, 1 mM EGTA, 10 μM Mg-ATP, 1 mM DTT) and eluted with a 0 to 750 mM KCl gradient in buffer A. Fractions containing KSP were pooled and incubated with Ni-NTA resin (Qiagen) for one hour. The resin was washed three times with buffer B (Lysis buffer minus PMSF and protease inhibitor cocktail), followed by three 15-minute incubations and washes with buffer B. Finally, the resin was incubated and washed for 15 minutes three times with buffer C (same as buffer B except for pH 6.0) and poured into a column. KSP was eluted with elution buffer (identical to buffer B except for 150 mM KCl and 250 mM imidazole). KSP-containing fractions were pooled, made 10% in sucrose, and stored at −80° C.
Microtubules are prepared from tubulin isolated from bovine brain. Purified tubulin (>97% MAP-free) at 1 mg/ml is polymerized at 37° C. in the presence of 10 μM paclitaxel, 1 mM DTT, 1 mM GTP in BRB80 buffer (80 mM K-PIPES, 1 mM EGTA, 1 mM MgCl2 at pH 6.8). The resulting microtubules are separated from non-polymerized tubulin by ultracentrifugation and removal of the supernatant. The pellet, containing the microtubules, is gently resuspended in 10 μM paclitaxel, 1 mM DTT, 50 μg/ml ampicillin, and 5 μg/ml chloramphenicol in BRB80.
The kinesin motor domain is incubated with microtubules, 1 mM ATP (1:1 MgCl2: Na-ATP), and compound at 23° C. in buffer containing 80 mM K-HEPES (pH 7.0), […], 1 mM DTT, 1 mM MgCl2, and 50 mM KCl. The reaction is terminated by a 2-10 fold dilution with a final buffer composition of 80 mM HEPES and 50 mM EDTA. […] The reaction is incubated for 10 minutes at 23° C., and the absorbance of the phospho-molybdate complex is measured at 540 nm.

IC50, ≤ 30 µM:
CC(=O)C1=NN2c3cc(F)ccc3OC[C@H]2[C@@]1(CCCN1CCN(C(C)=O)CC1)c1ccccc1 [Compound 5-10, 1-{(3R,4R)-3-[3-(4-acetylpiperazin-1-yl)propyl]-8-fluoro-3-phenyl-3a,4-dihydro-3H-pyrazolo[5,1-c][1,4]benzoxazin-2-yl}ethanone]
CC(=O)C1=NN2c3cc(F)ccc3OC[C@H]2[C@@]1(CCCO)c1ccccc1 [Compound 4-12, (3R,4R) 1-[8-fluoro-3-(3-hydroxypropyl)-3-phenyl-3a,4-dihydro-3H-pyrazolo[5,1-c][1,4]benzoxazin-2-yl]ethanone]
CC(=O)C1=NN2c3cc(F)ccc3OC[C@H]2[C@@]1(CCCN1CCC(=O)N(C)CC1)c1ccccc1 [Compound 4-38, 1-{3-[(3R,4R)-2-acetyl-8-fluoro-3-phenyl-3a,4-dihydro-3H-pyrazolo[5,1-c][1,4]benzoxazin-3-yl]propyl}-4-methyl-1,4-diazepan-5-one]
CC(=O)C1=NN2c3cc(C)ccc3OCC2C1(CCCN(C)C)c1ccccc1 [Compound 4-18, (3R,4R) 1-{3-[3-(dimethylamino)propyl]-8-methyl-3-phenyl-3a,4-dihydro-3H-pyrazolo[5,1-c][1,4]benzoxazin-2-yl}ethanone]
CC(=O)C1=NN2c3cc(F)ccc3OCC2C1(CCCN1CCNCC1)c1ccccc1 [Compound 4-23, (3R,4R) 1-[8-fluoro-3-phenyl-3-(3-piperazin-1-ylpropyl)-3a,4-dihydro-3H-pyrazolo[5,1-c][1,4]benzoxazin-2-yl]ethanone]
CC(=O)C1=NN2c3cc(F)ccc3OC[C@H]2[C@H]1c1ccccc1 [Compound 1-8a, (3R,4R)-1-(8-Fluoro-3-phenyl-3a,4-dihydro-3H-pyrazolo[5,1-c][1,4]benzoxazin-2-yl)ethanone]

Same assay, conditions: (3R,4R) enantiomeric form tested; kinesin motor domain with microtubules, 1 mM ATP, 23° C., free phosphate by quinaldine red/ammonium molybdate; read-out: IC50

IC50, ≤ 30 µM:
CC(=O)C1=NN2c3cc(F)ccc3OC[C@H]2[C@@]1(CCCN1CCN(C(=O)c2ccco2)CC1)c1ccccc1 [Compound 4-33, 1-((3R,4R)-8-fluoro-3-{3-[4-(2-furoyl)piperazin-1-yl]propyl}-3-phenyl-3a,4-dihydro-3H-pyrazolo[5,1-c][1,4]benzoxazin-2-yl)ethanone]
CC(=O)C1=NN2c3cc(F)ccc3OCC2[C@@]1(CCCN1CC2C[C@@H]1CO2)c1ccccc1 (mixture of isomers) [Compound 4-15, (3R,4R) 1-{8-fluoro-3-[3-(2-oxa-5-azabicyclo[2.2.1]hept-5-yl)propyl]-3-phenyl-3a,4-dihydro-3H-pyrazolo[5,1-c][1,4]benzoxazin-2-yl}ethanone]
CC(=O)C1=NN2c3cc(F)ccc3OC[C@H]2[C@@]1(CCCN1CCN(C(=O)OC(C)(C)C)CC1)c1ccccc1 [Compound 4-24, tert-butyl 4-{3-[(3R,4R)-2-acetyl-8-fluoro-3-phenyl-3a,4-dihydro-3H-pyrazolo[5,1-c][1,4]benzoxazin-3-yl]propyl}piperazine-1-carboxylate]
CC(=O)C1=NN2c3cc(F)ccc3OC[C@H]2[C@@]1(CCCN1CCN(C)C(=O)C1)c1ccccc1 [Compound 4-37, 4-{3-[(3R,4R)-2-acetyl-8-fluoro-3-phenyl-3a,4-dihydro-3H-pyrazolo[5,1-c][1,4]benzoxazin-3-yl]propyl}-1-methylpiperazin-2-one]
CC(=O)C1=NN2c3cc(F)ccc3OC[C@H]2[C@@]1(CCCN1CCN(C(=O)C(C)(C)C)CC1)c1ccccc1 [Compound 4-30, 1-((3R,4R)-3-{3-[4-(2,2-dimethylpropanoyl)piperazin-1-yl]propyl}-8-fluoro-3-phenyl-3a,4-dihydro-3H-pyrazolo[5,1-c][1,4]benzoxazin-2-yl)ethanone]
CC(=O)C1=NN2c3cc(C)ccc3OCC2[C@@]1(CCCN1CC2C[C@@H]1CO2)c1ccccc1 (mixture of isomers) [Compound 4-20, (3R,4R) 1-{8-methyl-3-[3-(2-oxa-5-azabicyclo[2.2.1]hept-5-yl)propyl]-3-phenyl-3a,4-dihydro-3H-pyrazolo[5,1-c][1,4]benzoxazin-2-yl}ethanone]
CC(=O)C1=NN2c3cc(F)ccc3OC[C@H]2[C@@]1(CCCN1CCNC(=O)C1)c1ccccc1 [Compound 4-36, 4-{3-[(3R,4R)-2-acetyl-8-fluoro-3-phenyl-3a,4-dihydro-3H-pyrazolo[5,1-c][1,4]benzoxazin-3-yl]propyl}piperazin-2-one]
CC(=O)C1=NN2c3cc(F)ccc3OC[C@H]2[C@@]1(CCCN1CCN(C(=O)c2ccno2)CC1)c1ccccc1 [Compound 4-34, 1-((3R,4R)-8-fluoro-3-{3-[4-(isoxazol-5-ylcarbonyl)piperazin-1-yl]propyl}-3-phenyl-3a,4-dihydro-3H-pyrazolo[5,1-c][1,4]benzoxazin-2-yl)ethanone]
CC(=O)C1=NN2c3cc(F)ccc3OC[C@H]2[C@@]1(CCCN1CCN(C(=O)N(C)C)CC1)c1ccccc1 [Compound 4-29, 4-{3-[(3R,4R)-2-acetyl-8-fluoro-3-phenyl-3a,4-dihydro-3H-pyrazolo[5,1-c][1,4]benzoxazin-3-yl]propyl}-N,N-dimethylpiperazine-1-carboxamide]
CC(=O)C1=NN2c3cc(F)ccc3OC[C@H]2[C@@]1(CCCN1CCN(C(N)=O)CC1)c1ccccc1 [Compound 4-27, 4-{3-[(3R,4R)-2-acetyl-8-fluoro-3-phenyl-3a,4-dihydro-3H-pyrazolo[5,1-c][1,4]benzoxazin-3-yl]propyl}piperazine-1-carboxamide]
CC(=O)NCCNCCC[C@]1(c2ccccc2)C(C(C)=O)=NN2c3cc(F)ccc3OC[C@H]21 [Compound 4-40, N-[2-({3-[(3R,4R)-2-acetyl-8-fluoro-3-phenyl-3a,4-dihydro-3H-pyrazolo[5,1-c][1,4]benzoxazin-3-yl]propyl}amino)ethyl]acetamide]
